Experimental data published in patent US12145987B2, “Method for depleting cytotoxic T cells using an anti-LAG-3 antibody composition” (Daiichi Sankyo Company, Limited, priority 2017, dated 2024).

What was measured:
Format in all cases: cell-based
[1] = test system: perforin positive CD8 T cells; assay: Perforin positive CD8 T cell number after CD3/CD28 stimulation of human PBMCs for 4 days, flow cytometry; conditions: hLA212_H4/L2 10 μg/mL, tacrolimus 10 nM, PBMCs of two donors
Method: (§1) PBMCs were separated from human peripheral blood by Ficoll centrifugation and added to a 96-well U-bottom microplate in an amount of 4×10^5 cells/well. Human IL-2 (PeproTech, Inc., final concentration: 100 ng/mL) and Dynabeads Human T-Activator CD3/CD28 (Life Technologies Corp., 4×105 beads/well) were added thereto, and T cells were activated by culture for 4 days. The obtained cells were recovered, suspended in a FACS buffer (PBS, 0.1% BSA, and 0.1% sodium azide), and then reacted with Human BD Fc Block (Becton, Dickinson and Company) at room temperature for 10 minutes. Subsequently, the cell surface was stained by reaction at 4° C. for 30 minutes with fluorescently labeled antibodies diluted with a FACS buffer containing a LIVE/DEAD Fixable Dead Cell Stain Kit-near-IR fluorescent reactive dye (manufactured by Invitrogen Corp.), followed by washing with a FACS buffer. […] The data was analyzed using FlowJo (manufactured by Tree Star Inc). After removal of the LIVE/DEAD Fixable Dead Cell Stain Kit-near-IR fluorescent reactive dye-positive dead cells by gating, only the living cells were analyzed by further gating CD3 positive and CD8 positive CD8 T cells. […]

T cells (total number) = assay: Total T cell number after CD3/CD28 stimulation of human PBMCs for 4 days, flow cytometry; conditions: hLA212_H4/L2 10 μg/mL, tacrolimus 10 nM, dexamethasone 1 μM, PBMCs of two donors
Method: as §1

CD28 negative T cells = assay: CD28 negative T cell number after CD3/CD28 stimulation of human PBMCs for 4 days, flow cytometry; conditions: tacrolimus 10 nM, dexamethasone 1 μM, two donors
Method: (§2) PBMCs were separated from human peripheral blood by Ficoll centrifugation and added to a 96-well U-bottom microplate in an amount of 4×10^5 cells/well. Human IL-2 (PeproTech, Inc., final concentration: 100 ng/mL) and Dynabeads Human T-Activator CD3/CD28 (Life Technologies Corp., 4×105 beads/well) were added thereto, and T cells were activated by culture for 4 days. The obtained cells were recovered, suspended in a FACS buffer (PBS, 0.1% BSA, and 0.1% sodium azide), and then reacted with Human BD Fc Block (Becton, Dickinson and Company) at room temperature for 10 minutes. […] The data was analyzed using FlowJo (manufactured by Tree Star Inc). After removal of the LIVE/DEAD Fixable Dead Cell Stain Kit-near-IR fluorescent reactive dye-positive dead cells by gating, only the living cells were analyzed by further gating CD3 positive and CD8 positive CD8 T cells.
(§3) The effect of the humanized anti-human LAG-3 antibody hLA212_H4/L2, the calcineurin inhibitor tacrolimus, and the corticosteroid dexamethasone on CD28 negative T cells and CD57 positive T cells was investigated in the assay system of Example 13. […] Out of the living cells, a CD3 positive and CD8 negative fraction and a CD3 positive and CD8 positive fraction were analyzed as CD4 T cells and CD8 T cells, respectively.

CD57 positive T cells = assay: CD57 positive T cell number after CD3/CD28 stimulation of human PBMCs for 4 days, flow cytometry; conditions: tacrolimus 10 nM, dexamethasone 1 μM, two donors
Method: as §2, §3

[2] = hLA212_H4/L2 10, 1, 0.1 μg/mL (effect concentration dependent)

Compound: C=CC[C@@H]1/C=C(\C)C[C@H](C)C[C@H](OC)[C@H]2O[C@@](O)(C(=O)C(=O)N3CCCC[C@H]3C(=O)O[C@H](/C(C)=C/[C@@H]3CC[C@@H](O)[C@H](OC)C3)[C@H](C)[C@@H](O)CC1=O)[C@H](C)C[C@@H]2OC [tacrolimus, reference compound]
- number of perforin positive CD8 T cells, compared with the control [1]: rarely different from those of the control
- total number of T cells after culture, compared with the control (T cells (total number)): slightly reduced
- number of CD28 negative CD8 T cells (CD28 negative T cells; [2]): evident reduction in the number of CD28 negative CD8 T cells as found for the LAG-3 antibody was not observed
- number of CD28 negative CD4 T cells (CD28 negative T cells; hLA212_H4/L2 10, 1, 0.1 μg/mL): hardly effective or rather increased the cell number
- number of CD57 positive CD8 T cells (CD57 positive T cells; [2]): evident reduction in the number of CD57 positive CD8 T cells as found for the LAG-3 antibody was not observed
- number of CD57 positive CD4 T cells (CD57 positive T cells; hLA212_H4/L2 10, 1, 0.1 μg/mL): such an effect was hardly observed
